This passage reports IC50 and melting point results from US9593108B2, “Compounds and methods for antiviral treatment” (PTC Therapeutics, Inc., priority 2009, dated 2017).

Data set [1] relates to HCV replicon RNA (GenBank Accession No. AJ242654). In words: HCV Replicon Assay (replicon RNA reduction and/or Fluc reporter signal). Format: cell-based, Hepatitis C virus. Particulars: Hepatitis C virus, 72 h, replicon-containing cells cultured with test compound for up to 3 days. The essentials: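 IC50 values mostly reflect the drop in replicon RNA, though Fluc reporter signal may also be used. Compound incubated with cells carrying the bicistronic replicon for as long as 3 days; interferon served as positive control.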
(In general: A replicon is a self-replicating genome or part of one, used to study replication in cells.)

SMILES strings stand for the structures.

Consider `N#Cc1c(-c2ccc(S(=O)(=O)NC3(C(F)(F)F)CC3)cn2)n(C2CCCC2)c2cc(Cl)ncc12` [Cpd 83, 6-(6-chloro-3-cyano-1-cyclopentyl-1H-pyrrolo[3,2-c]pyridin-2-yl)-N-[1-(trifluoromethyl)cyclopropyl]pyridine-3-sulfonamide], for which the melting point fell in the range of 225 to 227 °C. In data set [1], this compound yielded an IC50 of less than 500 nM.

For the compound `CC1(NS(=O)(=O)c2ccc(-c3c(C#N)c4cnc(Cl)cc4n3C3CCCC3)nc2)CC1` [Cpd 84, 6-(6-chloro-3-cyano-1-cyclopentyl-1H-pyrrolo[3,2-c]pyridin-2-yl)-N-(1-methylcyclopropyl)pyridine-3-sulfonamide], the melting point was 209 to 211 °C. This compound had an IC50 in data set [1] of less than 500 nM.

`CC(C)NS(=O)(=O)c1cnc(-c2c(C#N)c3cnc(Cl)cc3n2C2CCCC2)nc1` [Cpd 85, 2-(6-chloro-3-cyano-1-cyclopentyl-1H-pyrrolo[3,2-c]pyridin-2-yl)-N-(propan-2-yl)pyrimidine-5-sulfonamide] gave a melting point of 249 to 250 °C. In data set [1], the IC50 was less than 500 nM.

`N#Cc1c(-c2ncc(S(=O)(=O)NC(CF)CF)cn2)n(C2CCCC2)c2cc(Cl)ncc12` [Cpd 86, 2-(6-chloro-3-cyano-1-cyclopentyl-1H-pyrrolo[3,2-c]pyridin-2-yl)-N-(1,3-difluoropropan-2-yl)pyrimidine-5-sulfonamide] yielded a melting point of 224 to 226 °C. In data set [1], this compound returned an IC50 of less than 500 nM.

For `C[C@H](NS(=O)(=O)c1ccc(-c2c(C#N)c3cnc(Cl)cc3n2C2CCCC2)cc1)C(F)(F)F` [Cpd 87, 4-(6-chloro-3-cyano-1-cyclopentyl-1H-pyrrolo[3,2-c]pyridin-2-yl)-N-[(2S)-1,1,1-trifluoropropan-2-yl]benzenesulfonamide], the melting point was 238 to 240 °C. For the same compound, the half-inhibitory concentration (IC50) in data set [1] was less than 500 nM.

For the compound `C[C@@H](NS(=O)(=O)c1ccc(-c2c(C#N)c3cnc(Cl)cc3n2C2CCCC2)cc1)C(F)(F)F` [Cpd 88, 4-(6-chloro-3-cyano-1-cyclopentyl-1H-pyrrolo[3,2-c]pyridin-2-yl)-N-[(2R)-1,1,1-trifluoropropan-2-yl]benzenesulfonamide], the melting point fell in the range of 239 to 241 °C. In data set [1], the IC50 is less than 500 nM.

`N#Cc1c(-c2ccc(S(=O)(=O)NC3(C(F)(F)F)CC3)cc2)n(C2CCCC2)c2cc(Cl)ncc12` [Cpd 89, 4-(6-chloro-3-cyano-1-cyclopentyl-1H-pyrrolo[3,2-c]pyridin-2-yl)-N-[1-(trifluoromethyl)cyclopropyl]benzenesulfonamide]: the melting point is 288 to 289 °C. The concentration for half-maximal inhibition (IC50) in data set [1] is 2000 to 5000 nM.

Compound `Cc1ccc2c(C#N)c(-c3ccc(S(=O)(=O)N[C@@H](C)C(F)(F)F)cc3)n(C3CCC3)c2n1` [Cpd 90, 4-(3-cyano-1-cyclobutyl-6-methyl-1H-pyrrolo[2,3-b]pyridin-2-yl)-N-[(2S)-1,1,1-trifluoropropan-2-yl]benzenesulfonamide] showed a melting point of 169 to 177 °C. The same compound displayed an IC50 in data set [1] of less than 500 nM.

With `Cc1ccc2c(C#N)c(-c3ccc(S(=O)(=O)NC4(C(F)(F)F)CC4)cn3)n(C3CCC3)c2n1` [Cpd 94, 6-(3-cyano-1-cyclobutyl-6-methyl-1H-pyrrolo[2,3-b]pyridin-2-yl)-N-[1-(trifluoromethyl)cyclopropyl]pyridine-3-sulfonamide], the melting point fell in the range of 230 to 236 °C. For the same compound, the half-inhibitory concentration (IC50) in data set [1] was less than 500 nM.

As to `Cc1ccc2c(C#N)c(-c3ccc(S(=O)(=O)NC(C)C)nc3)n(C3CCC3)c2n1` [Cpd 96, 5-(3-cyano-1-cyclobutyl-6-methyl-1H-pyrrolo[2,3-b]pyridin-2-yl)-N-(propan-2-yl)pyridine-2-sulfonamide], the melting point was in the range of 211 to 216 °C. In addition, the half-inhibitory concentration (IC50) in data set [1] was less than 500 nM.

Compound `N#Cc1c(-c2ccc(S(=O)(=O)NC(CF)CF)cn2)n(C2CCC2)c2cc(Cl)ncc12` [Cpd 97, 6-(6-chloro-3-cyano-1-cyclobutyl-1H-pyrrolo[3,2-c]pyridin-2-yl)-N-(1,3-difluoropropan-2-yl)pyridine-3-sulfonamide] returned a melting point of 215 to 216 °C. In addition, the IC50 in data set [1] is less than 500 nM.

Regarding `N#Cc1c(-c2ccc(S(=O)(=O)NC3(C(F)(F)F)CC3)cn2)n(C2CCC2)c2cc(Cl)ncc12` [Cpd 98, 6-(6-chloro-3-cyano-1-cyclobutyl-1H-pyrrolo[3,2-c]pyridin-2-yl)-N-[1-(trifluoromethyl)cyclopropyl]pyridine-3-sulfonamide], the melting point lay in the range of 227 to 228 °C. Moreover, in data set [1], the concentration for half-maximal inhibition (IC50) is less than 500 nM.

Take `CC1(NS(=O)(=O)c2ccc(-c3c(C#N)c4cnc(Cl)cc4n3C3CCC3)nc2)CC1` [Cpd 99, 6-(6-chloro-3-cyano-1-cyclobutyl-1H-pyrrolo[3,2-c]pyridin-2-yl)-N-(1-methylcyclopropyl)pyridine-3-sulfonamide]: the melting point was in the range of 167 to 168 °C. Besides, the IC50 in data set [1] was less than 500 nM.

As for `CC(C)NS(=O)(=O)c1cnc(-c2c(C#N)c3cnc(Cl)cc3n2C2CCC2)nc1` [Cpd 100, 2-(6-chloro-3-cyano-1-cyclobutyl-1H-pyrrolo[3,2-c]pyridin-2-yl)-N-(propan-2-yl)pyrimidine-5-sulfonamide], the melting point lay in the range of 238 to 239 °C. The compound further came in with an IC50 in data set [1] of less than 500 nM.

Consider `N#Cc1c(-c2ncc(S(=O)(=O)NC(CF)CF)cn2)n(C2CCC2)c2cc(Cl)ncc12` [Cpd 101, 2-(6-chloro-3-cyano-1-cyclobutyl-1H-pyrrolo[3,2-c]pyridin-2-yl)-N-(1,3-difluoropropan-2-yl)pyrimidine-5-sulfonamide], for which the melting point was 237 to 238 °C. In data set [1], the IC50 is less than 500 nM.

`C[C@H](NS(=O)(=O)c1ccc(-c2c(C#N)c3cnc(Cl)cc3n2C2CCC2)cc1)C(F)(F)F` [Cpd 102, 4-(6-chloro-3-cyano-1-cyclobutyl-1H-pyrrolo[3,2-c]pyridin-2-yl)-N-[(2S)-1,1,1-trifluoropropan-2-yl]benzenesulfonamide]: the melting point is 202 to 203 °C. In data set [1], the 50% inhibitory concentration (IC50) is less than 500 nM.

For the compound `C[C@H](NS(=O)(=O)c1ccc(-c2c(C#N)c3ccncc3n2C2CCC2)nc1)C(F)(F)F` [Cpd 103, 6-(3-cyano-1-cyclobutyl-1H-pyrrolo[2,3-c]pyridin-2-yl)-N-[(2S)-1,1,1-trifluoropropan-2-yl]pyridine-3-sulfonamide], the melting point is 199 to 201 °C. The compound also came in with an IC50 in data set [1] of less than 500 nM.

As for `C[C@@H](NS(=O)(=O)c1ccc(-c2c(C#N)c3cc(Cl)ncc3n2C2CCC2)nc1)C(F)(F)F` [Cpd 104, 6-(5-chloro-3-cyano-1-cyclobutyl-1H-pyrrolo[2,3-c]pyridin-2-yl)-N-[(2R)-1,1,1-trifluoropropan-2-yl]pyridine-3-sulfonamide], the melting point was 181 to 185 °C. In data set [1], this compound showed a half-maximal inhibitory concentration (IC50) of less than 500 nM.

Take `C[C@@H](NS(=O)(=O)c1ccc(-c2c(C#N)c3cc(Cl)ncc3n2C2CCC2)cc1)C(F)(F)F` [Cpd 105, 4-(5-chloro-3-cyano-1-cyclobutyl-1H-pyrrolo[2,3-c]pyridin-2-yl)-N-[(2R)-1,1,1-trifluoropropan-2-yl]benzenesulfonamide]: the melting point was 248 to 250 °C. The compound also returned an IC50 in data set [1] of less than 500 nM.

For `N#Cc1c(-c2ccc(S(=O)(=O)NC3CC3)cn2)n(C2CCC2)c2cnc(Cl)cc12` [Cpd 106, 6-(5-chloro-3-cyano-1-cyclobutyl-1H-pyrrolo[2,3-c]pyridin-2-yl)-N-cyclopropylpyridine-3-sulfonamide], the melting point fell in the range of 170 to 172 °C. Besides, the IC50 in data set [1] was less than 500 nM.

A word on the IC50: it is the concentration needed to halve the response being measured. Read a high IC50 as a need for much substance. One may read the melting point as the temperature of the solid-liquid transition.
